The nature of data set [1]: Stability of carbohydrate-linked enzyme substrate peptide linkers. It counts as physicochemical. The note with it: linker: carbohydrate linked to the enzyme substrate peptide. As to the method: (§1) The specific aspartic acid endopeptidase (Legumain) enzyme substrate peptide was ligated to different types of carbohydrates, and the stability and enzymatic cleavage efficiency of the resulting linker were tested, and a strong activation was predicted.

The target in data set [2] is T1, aspartic acid endopeptidase (Legumain) (Homo sapiens, UniProt Q99538).
T1 sequence (Q99538 18-323): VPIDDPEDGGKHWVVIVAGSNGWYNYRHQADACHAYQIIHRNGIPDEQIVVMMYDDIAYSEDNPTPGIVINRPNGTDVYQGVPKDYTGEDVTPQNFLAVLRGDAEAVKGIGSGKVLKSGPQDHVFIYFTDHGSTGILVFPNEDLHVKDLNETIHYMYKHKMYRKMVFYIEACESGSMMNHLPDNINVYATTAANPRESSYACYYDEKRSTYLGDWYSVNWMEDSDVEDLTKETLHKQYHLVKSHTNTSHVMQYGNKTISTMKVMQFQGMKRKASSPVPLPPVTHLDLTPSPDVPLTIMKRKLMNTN
The data set can be described thus: Enzymatic cleavage (digestion) efficiency of linkers. It counts as biochemical. The note with it: linker cleaved by Legumain. The method, then: as §1

Data set [3] concerns the target T2, aspartic endopeptidase (Homo sapiens, UniProt Q99538).
T2 sequence (Q99538 18-323): T1 sequence (Q99538 18-323)
As to the kind of experiment: Activation efficiency by aspartic endopeptidase (HPLC). The following applies: 1 mg/ml compound, enzyme 1 μmol/L, pH 6.0, 37° C., 2 hours; ratio of released product to original compound. It counts as biochemical. The method, then: The sample compound and a portion of the control compound (herein, all of the control compounds can be synthesized by a method similar to that described in Examples 1-3) were uniformly diluted 10-fold to 1 mg/ml with the enzyme-digesting solution. In this experiment, 1 mg/ml of the sample compound was added to the aspartic endopeptidase (1 μmol/L, pH 6.0) at 37° C. for 2 hours. After the reaction, the enzyme digest was able to release the enzyme-digested product. The decrease in the compound and the increase in the product were examined by HPLC to compare the enzyme activation efficiency (the ratio of the product released by the enzyme cleavage to the original compound).

Data set [4] is described as follows: Solid stability, 60° C. for 10 days in the dark (HPLC). The note with it: solid, 60° C., 10 days, dark. It counts as physicochemical. The method, then: The test was carried out by leaving it at 60° C. for 10 days in the dark. The ratio of the change in the content of the compound to the compound at time 0 was measured by HPLC, and the stability value (%) was calculated.

Data set [5] is described as follows: Drug content in tumor tissue homogenate (HPLC). It counts as in vivo. The note with it: 10 micromoles per kilogram intravenous, tumor-bearing mice, FIG. 4. The method, then: Intravenous injection of 10 micromoles per kilogram of the drug into tumor-bearing mice, surgically obtained tumor tissue homogenate, and the drug content was determined by the HPLC method.

Data set [6] in a line: MTD (maximum tolerated dose) acute toxicity in mice. It counts as in vivo, mouse. The following applies: female, mouse, in vivo; BALB/C mice, intravenous, observed 17 days. From the text:
(§2) Test purpose: to investigate the acute toxicity of highly activated compounds by targeted site molecules of the invention by measuring the MTD (maximum tolerated dose) experiment in mice.
(§3) The injections of each drug and the control drug were uniformly dissolved using water for injection, and diluted to the corresponding dose with physiological saline during the test.
(§4) Methods and results: […] BALB/C mice, weighing 19-21 g, were randomly divided into 10 groups, with 10 mice in each group. […] A control test of the saline group and the adriamycin group injection (commercially available, Beijing Yue kang) was carried out, and the injection volume of each mouse was 0.2 ml. […] On the D3, D5, and D14, blood samples were taken for whole blood count.

The test system of data set [7] is BALB/C mouse. Described as above. The note with it: intravenous; for Number of deaths: 10 mice per group; for Death dose: observed 17 days. The class given is in vivo.
Description: as §2, §3, §4

For data set [8], the system named is CT26 tumor cells. The data set can be described thus: CT26 immunotherapy model (Example 15). The class given is in vivo, mice. The method, then:
(§5) 1) CT26 tumor cells were purchased from ATCC, and the cells were cultured using a 10% fetal bovine serum DMEM medium at 37° C., 5% CO2. The cells were passaged every 3 days and the cells were used within 15 generations.
(§6) 2) Tumor production: 10^6 live CT26 tumor cells were injected subcutaneously into the back of tumor-immunized […], and treatment was started when the tumor grew to about 0.3-0.4 cm. The tumor size (mm^3) of the mice was recorded and compared with the solvent control group. The tumor inhibition rate on day 42 was calculated in the solvent control group.
(§7) 3) Treatment process: IV injection is used, and the drug is used at a dose of ⅓ MTD once a week Immunosuppressive IV injection treatment once a week for a total of 6 weeks of treatment.
(§8) 4) The cure rate of 10 in each group was counted. After 50 days, the cured mice and wild groups were inoculated […] to detect recurrence.

Data set [9] concerns D121 lung cancer cells. As to the kind of experiment: D121 lung cancer immunotherapy model. The note with it: for Tumor inhibition rate/% (week 7) / CD8: CD45 (%): single agent; for Tumor inhibition rate/% (week 7): i.v. ⅙ MTD once a week for 4 weeks; for CD8: CD45 (%): tumor CD8+ T cells among CD45-positive cells.
Description: (1) D121 lung cancer cells purchased from ATCC were cultured in DMEM medium containing 10% fetal bovine serum at 37° C. and 5% CO2, and the cells were digested with EDTA trypsin according to routine use, and passed two to three times a week for placement.
(2) Animals: C57 BALB/C mice, 6-8 weeks old, female, weighing about 18-22 g, purchased from Shanghai SLAC Laboratory Animal Co., Ltd.
3) Immunization: Mice were intraperitoneally injected with 100 μL of 5×10^5 D121 lung cancer cells that died by repeated freeze-thaw cycles, and immunized 3 times with an interval of 2 weeks.
4) Cell seeding: Collect the tumor cells in logarithmic growth phase, adjust the D121 cell concentration to (1×10^7/ml) with DMEM basal medium, 0.1 ml of the cell suspension was inoculated to the right side of each mouse subcutaneously with a 1 ml syringe. […] Tumor volume was observed and measured, and the average tumor volume reached 100-200 mm^3 about 7 days after inoculation, that is, tumor cell-bearing mice were grouped and administered. The immunized group in Table 9 was immunized with D121 lung cancer cells, and the D121 dead tumor cell immunized group was injected with physiological saline as a control.
The immunosuppressive regulatory point protein Anti-PD-L1 antibody was injected twice a week. A total of two weeks.
6) Experimental observation: During the whole experiment, the use and observation of experimental animals were carried out in accordance with the regulations of AAALAC. The experimental animals were observed daily after inoculation of tumor cells, and their onset and death were recorded. During the routine experiment, all experimental animals were monitored and recorded for behavior, feeding, water intake, weight change, hair shine and other abnormalities.
(7) Analysis of tumor CD8+ T cells (T lymphocyte subsets). Tumor tissues were ground and single cancer cells were isolated by filtration using 40 μm Nylon cell strainer, lysed twice with blood cell lysis buffer for 20 min, washed twice with 1% BSA-PBS buffer, centrifuged, and resuspended, and then the cells were counted again. 1×10^5 cells were incubated with leukocyte co-antigen CD45-PE and CD8-FITC-labeled antibody for 1 hour at room temperature in the dark, and then analyzed the proportion of T lymphocyte antigen (CD8) in leukocyte common antigen (CD45)-positive cells by flow cytometry.
The subject of data set [10] is Tumor-associated macrophages (M2 type). The data set can be described thus: MTT toxicity on tumor-associated macrophages (M2 type). The class given is cell-based. The following applies: 48 hours, pH 6.5, MTT, FIG. 7. The method, then:
Tumor-associated macrophages (M2 type) induced by mononuclear bone marrow cells were collected by M-CSF (10 ng/ml), the cell suspension concentration was adjusted, 140 ul per well was added, and the cells were adjusted to a density of ˜3000 […]. 5% CO2, incubate at 37° C. overnight, until the cell monolayer is covered with the bottom of the well (96-well flat bottom plate), and then add a continuous concentration gradient to give different concentrations of the drug, the drug is set to 9 concentration gradients, 10 μl per well, set Three replicate wells; 5% CO2, incubated at 37° C., pH 6.5 for 48 hours, observed under an inverted microscope; 20 μl of MTT solution (5 mg/ml, i.e., 0.5% MTT) was added to each well and culture was continued for 4 h. The culture was terminated, and the culture solution in the well was carefully aspirated; 100 ul of dimethyl sulfoxide was added to each well, and shaken on a shaker at a low speed for 10 min to dissolve the crystals sufficiently. The absorbance of each well was measured at an enzyme-linked immunosorbent detector at OD490 nm. At the same time, zero adjustment holes (medium, MTT, dimethyl sulfoxide), control group (cell, same concentration of drug dissolution medium, medium, MTT, dimethyl sulfoxide) were set. The toxicity of the compound to tumor-associated macrophages (M2 type) was analyzed after the test. The inhibition of tumor-associated macrophages (M2 type) by different drugs was compared. […] Compound a, sorafenib, is also toxic because it is not a targeted activating drug.

For data set [11], the system named is CT26 tumor cells. The data set can be described thus: CT26 treatment model (Example 17). The class given is in vivo, mice. The note with it: CT26 model as in Example 15. The method, then: as §5, §6, §7, §8
The CT26 immunotherapy model was constructed as in Example 15, and the pharmacodynamic and immunotherapeutic effects of the compounds S4-S6, S9-S12 and S15-S18 in the CT26 treatment model were tested.

Experimental findings from US11078232B2, “Preparation and use of molecular site targeted and activated kinase inhibitor” (Yafei Shanghai Biology Medicine Science & Technology Co. …, priority 2017, dated 2021) are described below.

Regarding `CC(/N=C\[C@H](O)[C@@H](O)[C@H](O)[C@H](O)CO)C(=O)NC(C)C(=O)NC(CC(N)=O)C(=O)Nc1ccc(CO)cc1` (some centres unmarked), in [1], the stability amounted to 89.6%. Also, the Digestion efficiency in [2] amounted to 25.5%.
The corresponding values for `CC(/N=C(\CO)C(O)C(O)C(O)CO)C(=O)NC(C)C(=O)NC(CC(N)=O)C(=O)Nc1ccc(CO)cc1` (centres unmarked) are 85.5% and 35.8%.
Regarding `CC(NC(=O)C(C)NC(=O)[C@H](O)[C@H](O)[C@@H](O[C@@H]1O[C@H](CO)[C@H](O)[C@H](O)[C@H]1O)[C@H](O)CO)C(=O)NC(CC(N)=O)C(=O)Nc1ccc(COC(=O)N(C)CCNC(=O)c2cc(Oc3ccc(NC(=O)Nc4ccc(Cl)c(C(F)(F)F)c4)c(F)c3)ccn2)cc1` (some centres unmarked) [Compound S2, Lacto-AAN-PABC-Compound b], the “Activation efficiencies (%)” value in data set [3] turned out to be 88.4%. In addition, the “Stability verdict (stable / unstable)” value in data set [4] is recorded as “stable”. Also, the “Stability(%)” value in [4] (content versus time 0) came to 99.6%. Further, the “drug distribution in the tumor” value in [5] was “multiplied in the distribution of sorafenib in the tumor”. For the same molecule, the MTD at 17 days in [6] was found to be 300 mg/kg. Further, in data set [7], the Number of deaths is 2 and the “Death dose” value amounted to 350 mg/kg. In addition, in data set [8] (10 in each group), the Cure rate % is 50% and the Number of cures is reported as 5. The “Tumor inhibition rate % (Day 42)” value in data set [8] (IV ⅓ MTD once a week, 6 weeks) is 92.4%. The “Recurrence rate % (Week 7)” value in [8] (cured mice re-inoculated with CT26 cells after 50 days) was found to be 0%. Besides, the “Tumor inhibition rate/% (week 7)” value in data set [9] worked out at 52.4%. Besides, the “CD8: CD45 (%)” value in data set [9] (flow cytometry) worked out at 10.5%.
As for `CNC(=O)c1cc(Oc2ccc(NC(=O)Nc3ccc(Cl)c(C(F)(F)F)c3)cc2)ccn1` [Sorafenib, reference compound], the MTD at 17 days in [6] was 11 mg/kg. Besides, in data set [7], the Number of deaths came out at 0 and the “Death dose” value stood at 12 mg/kg. In addition, in data set [10], the “toxicity to / activation by tumor-associated macrophages (M2 type)” value is “also toxic”. Besides, in [11], the “CD8: CD45 (%)” value is 7.2%, the “Number of animals cured” value is on record as 0 and the “Tumor inhibition rate/% (at week 7)” value was found to be 15.7%. The “effect on T cells” value in [9] (flow cytometry, discussion of Table 6) is listed as “inhibited T cells”. Also, the “Tumor inhibition rate/% (week 7)” value in data set [9] came to 24.5%. For the same molecule, the “CD8: CD45 (%)” value in data set [9] (flow cytometry) is reported as 6.4%.
For the molecule PEG-Ala-Ala-ASN-PABC, the stability in data set [1] was 97.6%. Moreover, the Digestion efficiency in data set [2] is on record as 68.6%.

For orientation: MTD means the highest dose tested that stayed within the study's limit of toxicity. The low end stands for poorer tolerability, the high end for better tolerability.
